Structures are written as SMILES.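 Dose response: 5 concentrations. Exposure: 48 h. Format: 96-well plates. Endpoint: linear interpolation; highest concentration if not reached. The concentration for 50% growth inhibition is given as GI50.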 Active and inactive are the calls of the source. No stated cut-off is given here; in the data, active = GI50 up to about 1.1 µM and inactive = higher. Some results are limits rather than exact numbers.

This note sets out measurements from ChEMBL document CHEMBL1201862, “PubChem BioAssay data set” (2004).

Among the test systems are 786-0; HCC 2998; HCT-116; HL-60; HOP-62; HT-29; LOX IMVI; MCF7; MDA-MB-231; MDA-N; NCI-H23; NCI-H460; NCI-H522; NCI/ADR-RES; PC-3; RPMI-8226; SK-MEL-2; SNB-75; T47D.
What all share (assay): DTP human tumour cell line panel, 48 h

Take `COc1ccc(CC2NC(=O)/C=C/CC(C(C)C3OC3c3ccccc3)OC(=O)C(CC(C)C)OC(=O)C(C)CNC2=O)cc1Cl` (stereo not given): the GI50 in the assay on 786-0 was < 1e-05 µM (active); with HCC 2998, 3.07e-05 µM (active); with HCT-116 it was < 1e-05 µM (active); with HL-60 it was < 1e-05 µM (active); in the assay with HOP-62, 1.76e-05 µM (active); with HT-29, < 1e-05 µM (active). The 50% growth inhibitory concentration (GI50) was < 1e-05 µM (active) in the assay with LOX IMVI; 1.34e-05 µM (active) with MCF7; 1.47e-05 µM (active) with MDA-MB-231; < 1e-05 µM (active) in the assay on MDA-N; 2.07e-05 µM (active) with NCI-H23; < 1e-05 µM (active) in the assay on NCI-H460. The GI50 is < 1e-05 µM (active) in the assay with NCI-H522; 4.81e-05 µM (active) with NCI/ADR-RES; 1.04e-05 µM (active) with PC-3; 3.62e-05 µM (active) with RPMI-8226; 0.001 µM (active) in the assay on SK-MEL-2; 2.83e-05 µM (active) with SNB-75.
As for `S=C=NC1CCC(c2cc3ccccc3s2)(N2CCCCC2)CC1` (stereo not given), the GI50 in the assay on 786-0 was 1.78 µM (inactive); in the assay on HCC 2998, 1.8 µM (inactive); in the assay with HCT-116, 1.82 µM (inactive); in the assay with HL-60, 1.31 µM (inactive); with HOP-62, 2.07 µM (inactive); with HT-29, 1.77 µM (inactive). In addition, the GI50 is 1.64 µM (inactive) with LOX IMVI; 2.09 µM (inactive) in the assay on MCF7; 1.77 µM (inactive) with MDA-N; 1.92 µM (inactive) with NCI-H23; 1.87 µM (inactive) in the assay on NCI-H460; 1.63 µM (inactive) with NCI-H522. Besides, the GI50 in the assay on NCI/ADR-RES was 1.84 µM (inactive); in the assay on RPMI-8226, 1.46 µM (inactive); in the assay with SNB-75, 1.87 µM (inactive); in the assay on T47D it was 2.99 µM (inactive).
With `COc1ccc(CSc2ccccc2Cn2cccc2)cc1OC`, the GI50 in the assay with 786-0 was > 100 µM (inactive); in the assay on HCC 2998, 56.6 µM (inactive); in the assay with HCT-116 it was 89.1 µM (inactive); in the assay with HL-60, 20.7 µM (inactive); with HOP-62, > 100 µM (inactive); in the assay on HT-29 it was 99.8 µM (inactive). Besides, the GI50 in the assay with LOX IMVI is 73.5 µM (inactive); in the assay with MCF7 it was 36.2 µM (inactive); with MDA-N it was > 100 µM (inactive); with NCI-H23, 10.9 µM (inactive); in the assay with NCI-H460, > 100 µM (inactive); in the assay with NCI/ADR-RES it was 34.3 µM (inactive). Also, the GI50 with RPMI-8226 was 11.6 µM (inactive); with SNB-75 it was > 100 µM (inactive); in the assay on T47D, 35.2 µM (inactive).
With `COc1cccc(C2c3cc4c(cc3OC(NNC(N)=O)C2C)OCO4)c1OC` (stereo not given), the GI50 in the assay with 786-0 is 4.76 µM (inactive); in the assay with HCC 2998 it was 32 µM (inactive); with HCT-116, 14.1 µM (inactive); in the assay on HL-60, 20.8 µM (inactive); in the assay with HOP-62, 22 µM (inactive); in the assay with HT-29 it was 22.4 µM (inactive). For the same molecule, the GI50 in the assay with LOX IMVI was 19.1 µM (inactive); with MCF7 it was 31 µM (inactive); in the assay with MDA-MB-231, 31.7 µM (inactive); with MDA-N it was 18 µM (inactive); in the assay on NCI-H23, 30.8 µM (inactive); in the assay with NCI-H460, 23.1 µM (inactive). In addition, the GI50 with NCI-H522 is 20.4 µM (inactive); with PC-3 it was 19.4 µM (inactive); in the assay with RPMI-8226 it was 13 µM (inactive); with SK-MEL-2 it was 20.5 µM (inactive); in the assay with SNB-75, 15.8 µM (inactive); in the assay with T47D, 27.1 µM (inactive).
On to `COc1cc(/C=C2\N=C(C)N(n3c(-c4ccccc4)nc4ccccc4c3=O)C2=O)cc(OC)c1OC`, for which the GI50 in the assay with 786-0, in the assay with HCC 2998, in the assay with HCT-116, in the assay on HL-60, in the assay on HOP-62 and in the assay on HT-29 was > 100 µM (inactive) in each case. Moreover, the GI50 is > 100 µM (inactive) in the assay with LOX IMVI; > 100 µM (inactive) in the assay with MCF7; > 100 µM (inactive) in the assay on MDA-MB-231; > 100 µM (inactive) in the assay on MDA-N; 94.6 µM (inactive) with NCI-H23; > 100 µM (inactive) in the assay on NCI-H460. The GI50 with NCI-H522 was 46.3 µM (inactive); in the assay on PC-3 it was > 100 µM (inactive); in the assay with RPMI-8226 it was 85.3 µM (inactive); in the assay on SNB-75, > 100 µM (inactive); in the assay on T47D, 82.4 µM (inactive).
As for `CCCC(=O)NC(Nc1ccc(S(=O)(=O)Nc2ccc(OC)nn2)cc1)(C(F)(F)F)C(F)(F)F`, the GI50 in the assay with 786-0, in the assay with HCC 2998, in the assay on HCT-116, in the assay on HL-60, with HOP-62 and with HT-29 was > 100 µM (inactive) each time. For the same molecule, the GI50 in the assay on LOX IMVI, in the assay with MDA-MB-231, with MDA-N, with NCI-H23, in the assay with NCI-H460 and in the assay on NCI-H522 was > 100 µM (inactive) throughout. Also, the GI50 with NCI/ADR-RES, in the assay on PC-3, in the assay on RPMI-8226, in the assay with SK-MEL-2, with SNB-75 and with T47D was > 100 µM (inactive) throughout.
Take `COc1cc2c(c(O)c1OC)C(=O)C1CCC(=O)N1C2c1cccc2ccccc12` (stereo not given): the GI50 with 786-0 is > 100 µM (inactive); in the assay on HCT-116 it was 50.5 µM (inactive); with HL-60, 20.6 µM (inactive); in the assay on HOP-62 it was 54.8 µM (inactive); in the assay with HT-29, 42.5 µM (inactive); with MCF7 it was 32.5 µM (inactive). The GI50 with MDA-MB-231 was 23.8 µM (inactive); in the assay on MDA-N, 40.8 µM (inactive); in the assay on NCI-H23, 89.7 µM (inactive); in the assay on NCI-H460, 32.3 µM (inactive); in the assay with NCI-H522 it was 23.7 µM (inactive); with NCI/ADR-RES, 41.2 µM (inactive). Besides, the GI50 is 25.2 µM (inactive) in the assay on PC-3; 20.7 µM (inactive) in the assay with RPMI-8226; 50.7 µM (inactive) in the assay with SK-MEL-2; > 100 µM (inactive) in the assay on SNB-75; 36.6 µM (inactive) in the assay on T47D.
Turning to `Cc1cc(=O)oc2c(CNC(CO)C(=O)O)c(O)ccc12` (stereo not given), the GI50 in the assay with 786-0, with HCT-116, with HL-60, with HOP-62, in the assay with HT-29 and in the assay on LOX IMVI was > 100 µM (inactive) each time. In addition, the GI50 in the assay with MCF7, in the assay on MDA-MB-231, in the assay on MDA-N, with NCI-H23, with NCI-H460 and with NCI-H522 was > 100 µM (inactive) each time. For the same molecule, the GI50 in the assay on NCI/ADR-RES, in the assay on PC-3, in the assay on RPMI-8226, in the assay on SK-MEL-2, with SNB-75 and in the assay with T47D was > 100 µM (inactive) in each case.
On to `O=c1oc2c(Cl)cc(Cl)cc2cc1C1=CSC2=NCCN12`, for which the GI50 in the assay on 786-0 is 40.8 µM (inactive); in the assay on HCT-116, 31 µM (inactive); in the assay with HL-60, 30.3 µM (inactive); in the assay on HOP-62, 38.8 µM (inactive); with HT-29, 61.2 µM (inactive); in the assay on LOX IMVI, 59.8 µM (inactive). The GI50 is 28.8 µM (inactive) in the assay with MCF7; 28.9 µM (inactive) in the assay on MDA-MB-231; 36.2 µM (inactive) in the assay with MDA-N; 46 µM (inactive) in the assay with NCI-H23; 57.5 µM (inactive) in the assay with NCI-H460; 79.6 µM (inactive) with NCI/ADR-RES. The GI50 is 42.1 µM (inactive) with PC-3; 58.9 µM (inactive) in the assay on RPMI-8226; > 100 µM (inactive) with SK-MEL-2; 65.8 µM (inactive) with SNB-75; 36.5 µM (inactive) with T47D.
`CN(C)C(=S)N/N=C\C=N/NC(=S)N(C)C`: the GI50 in the assay on 786-0 was 0.209 µM (active); in the assay with HOP-62 it was 0.129 µM (active); with HT-29, 0.0625 µM (active); with LOX IMVI, 0.321 µM (active); in the assay on MCF7 it was 0.329 µM (active); with MDA-MB-231 it was > 100 µM (inactive). Further, the GI50 in the assay on MDA-N was 3.29 µM (inactive); in the assay on NCI-H23 it was 1.63 µM (inactive); with NCI-H460 it was 0.0231 µM (active); in the assay with NCI-H522, 0.22 µM (active); in the assay on NCI/ADR-RES it was 0.189 µM (active); in the assay on PC-3 it was 0.182 µM (active). The GI50 is 0.871 µM (active) in the assay on RPMI-8226, 0.361 µM (active) in the assay with SK-MEL-2, 1.75 µM (inactive) in the assay on SNB-75 and 0.384 µM (active) in the assay on T47D.
In the case of `N#CC(c1nc2ccccc2s1)c1ncnc(Cl)c1[N+](=O)[O-]` (stereo not given), the GI50 with 786-0 was 20.1 µM (inactive); with HCT-116, 12.6 µM (inactive); in the assay with HOP-62 it was 28.8 µM (inactive); in the assay on HT-29, 17.4 µM (inactive); in the assay on LOX IMVI, 17.3 µM (inactive); in the assay on MDA-MB-231, 30.8 µM (inactive). Further, the GI50 in the assay on MDA-N is 18.2 µM (inactive); in the assay with NCI-H23, 16.5 µM (inactive); with NCI-H460 it was 20.3 µM (inactive); in the assay on NCI-H522, 18.9 µM (inactive); in the assay on NCI/ADR-RES, 17.8 µM (inactive); in the assay on RPMI-8226, 28.1 µM (inactive). Besides, the figures for the GI50 with SNB-75 and in the assay on T47D were 22.9 µM (inactive) and 29.1 µM (inactive), respectively.
Regarding `COc1cc(-c2c3c(cc4c2OCO4)[C@@H](Nc2ccc4c(c2)Cc2cc(N[C@@H]5c6cc7c(cc6C(c6cc(OC)c(O)c(OC)c6)[C@H]6C(=O)OC[C@H]56)OCO7)ccc2-4)[C@H]2COC(=O)[C@@H]2C3)cc(OC)c1O` (stereo not given in full), the GI50 with 786-0 was 18.5 µM (inactive); in the assay on HCT-116, 21.8 µM (inactive); in the assay with HL-60 it was > 100 µM (inactive); in the assay on HOP-62 it was 18.5 µM (inactive); with HT-29, 20 µM (inactive); in the assay with LOX IMVI, 51.3 µM (inactive). Further, the GI50 in the assay on MCF7 was 27.9 µM (inactive); in the assay with MDA-MB-231, 21 µM (inactive); in the assay on MDA-N it was 13.3 µM (inactive); with NCI-H23, 76.4 µM (inactive); in the assay with NCI-H460 it was 17.3 µM (inactive); in the assay on NCI/ADR-RES, 15.2 µM (inactive). For the same molecule, the GI50 is 10.9 µM (inactive) with PC-3, > 100 µM (inactive) in the assay with RPMI-8226, > 100 µM (inactive) in the assay on SNB-75 and 98.2 µM (inactive) in the assay with T47D.
